Assays:
ASB11 = experiment: Western blot analysis of ASB11 protein expression under ER stress; assay type: cell-based; conditions: multiple cell lines; 10 μg/ml tunicamycin or 200 nM thapsigargin, 16 h; FIG. 4a
Experimental: (§1) FIG. 4. ER stress stimulates BIK ubiquitination and degradation through ASB11 and p97. (a) Western blot analysis of BIK and ASB11 levels in 293T cells treated with 10 μg/ml tunicamycin or 200 nM of thapsigargin for 16 h. (b) Western blot analysis of BIK levels in 293T cells treated with 10 μg/ml tunicamycin for 12 h and then with 50 μg/ml cycloheximide for indicated time periods. The relative amounts of BIK are indicated on the bottom. (c, e) Analysis of endogenous (c) or exogenous (e) BIK ubiquitination in 293T cells (c) or 293T derivatives as in FIG. 2d (e) transfected with indicated constructs and treated with tunicamycin. (d) Western blot analysis of 293T derivatives as in FIG. 2d treated with 10 μg/ml tunicamycin for 16 h. (f) Western blot analysis of BIK levels in 293T derivatives co-treated with 10 μg/ml tunicamycin and MG132 for 16 h. (g) Western blot analysis of BIK expression in 293T cells co-treated with tunicamycin and 10 μM CB-5083 for 16 h. […]
(§2) Cell extraction was performed with RIPA lysis buffer containing 50 mM Tris (pH 8.0), 0.15 M NaCl, 1% NP40, 1% sodium deoxycholate, 0.1% SDS, 1 mM PMSF, 1 µg/ml aprotinin, and 1 µg/ml leupeptin. […] Immunoprecipitation was performed and analyzed as previously described. […] The beads were washed with RIPA lysis buffer and the bound proteins were analyzed by Western blot.

ASB11 mRNA = experiment: RT-qPCR analysis of ASB11 mRNA level under ER stress; assay type: cell-based; conditions: 293T, MDA-MB157 and MDA-MB468 cells; 16 h; FIG. 3a
Experimental: FIG. 3. ER stress induces ASB11 transcription through XBP1. (a, b) RT-qPCR analysis of ASB11 mRNA level in 293T cells (a) or 293T cells stably expressing control or XBP1 shRNAs (b) treated with tunicamycin or thapsigargin for 16 h. (c) RT-qPCR analysis of ASB11 mRNA expression in 293T cells transfected with control vector or XBP1s. (d) Schematic representation of the 5′-regulatory region of ASB11 gene, the luciferase reporters and the ChIP primers used in this study. (e, g) Luciferase reporter assay of 293T cells transfected with control or XBP1s expression construct together with the indicated reporter constructs. (f, k) qChIP assays in 293T cells (f) or 293T derivatives (k) treated with 10 μg/ml tunicamycin for 16 h using control IgG or XBP1s antibody for immunoprecipitation and indicated sets of primers for qPCR. […] P values are determined by t-test (a, b right panel, c, e) or 1-way ANOVA with Tukey's post test (b left panel, f, g, i, j, k). **P<0.01; ***P<0.001.
Total mRNA was extracted from cells using TRIZOL reagent (Invitrogen), and equal amounts of RNA were reverse transcribed to cDNA using the iScript™ cDNA Synthesis Kit (Bio-Rad). Quantitative real-time PCR was performed using the Power SYBR Green PCR Master kit (Applied Biosystems). […]

BIK [1] = experiment: Analysis of endogenous BIK ubiquitination in 293T cells; assay type: cell-based; conditions: FIG. 4c
Experimental: FIG. 4. ER stress stimulates BIK ubiquitination and degradation through ASB11 and p97. (a) Western blot analysis of BIK and ASB11 levels in 293T cells treated with 10 μg/ml tunicamycin or 200 nM of thapsigargin for 16 h. (b) Western blot analysis of BIK levels in 293T cells treated with 10 μg/ml tunicamycin for 12 h and then with 50 μg/ml cycloheximide for indicated time periods. The relative amounts of BIK are indicated on the bottom. (c, e) Analysis of endogenous (c) or exogenous (e) BIK ubiquitination in 293T cells (c) or 293T derivatives as in FIG. 2d (e) transfected with indicated constructs and treated with tunicamycin. (d) Western blot analysis of 293T derivatives as in FIG. 2d treated with 10 μg/ml tunicamycin for 16 h. (f) Western blot analysis of BIK levels in 293T derivatives co-treated with 10 μg/ml tunicamycin and MG132 for 16 h. (g) Western blot analysis of BIK expression in 293T cells co-treated with tunicamycin and 10 μM CB-5083 for 16 h. (h, i) Western blot analysis of BIK expression in 293T cells stably expressing indicated shRNAs and treated with 10 μg/ml tunicamycin for 16 h. The knockdown efficiency of each shRNA is shown on the right. (j) Immunoprecipitation analysis of p97 interaction with ubiquitinated BIK in 293T cells treated with 10 μg/ml tunicamycin for 16 h. […]

BIK [2] = experiment: Western blot analysis of BIK levels in 293T cells; assay type: cell-based; conditions: multiple cell lines; 10 μg/ml tunicamycin or 200 nM thapsigargin, 16 h; FIG. 4a
Experimental: FIG. 2. […] (d) Western blot analysis of BIK levels in indicated cells stably expressing control or ASB11 shRNAs.
(§3) Cell extraction was performed with RIPA lysis buffer containing 50 mM Tris (pH 8.0), 0.15 M NaCl, 1% NP40, 1% sodium deoxycholate, 0.1% SDS, 1 mM PMSF, 1 µg/ml aprotinin, and 1 µg/ml leupeptin. Western blot was performed with the standard protocol. For an efficient detection of BIK by Western blot, Tricine-SDS-PAGE was used. Western blot analyses of other proteins were performed with Glycine-SDS-PAGE. Immunoprecipitation was performed and analyzed as previously described. Briefly, cell lysates were incubated with primary antibody for overnight. The Pure Proteome Protein A/G Magnetic Beads (LSKMAGA/G10, EMD Millipore) were then added into cell lysates and incubated for 1.5 h. The beads were washed with RIPA lysis buffer and the bound proteins were analyzed by Western blot.

293T cells = experiment: ELISA assay of cell apoptosis (Cell Death ELISA) in 293T cells; assay type: cell-based; conditions: control 293T cells, early time point (12 h) after tunicamycin; FIG. 6e
Experimental: FIG. 6. Regulation of ASB11-mediated BIK ubiquitination influences on cell life-death decision under ER stress and DNA damage. (a, b) ELISA assay of cell apoptosis (a) and Western blot analysis of active caspase 3 and cleaved PARP (b) in HCT116 p53^+/+ cells stably expressing indicated ASB11 constructs and treated with 3 μg/ml doxorubicin for 24 h. (c, d) ELISA assay of cell apoptosis (c) and Western blot analysis of active caspase 3 and cleaved PARP (d) in HCT116 p53^+/+ cells transiently transfected with ASB11 and/or BIK and treated with 3 μg/ml doxorubicin for 24 h. (e, f) ELISA assay for cell apoptosis (e) and Western blot analysis of active caspase 3 and cleaved PARP (f) in 293T cells stably expressing indicated shRNAs and treated with […] tunicamycin for 12 h. The knockdown efficiencies of various shRNAs are shown on the bottom. (g) Western blot analysis of BIK level in 293T cells transiently transfected with indicated BIK constructs and treated with 10 μg/ml tunicamycin for 24 h. The equal expression of BIK and BIK(2KR) in untreated cells (by adjusting the amount of plasmid used for transfection) is shown. […]
Apoptosis was analyzed as previously described. […] Cells were harvested and DNA fragmentation was measured by Cell Death ELISA Kit (Roche).

BIK [3] = experiment: Cycloheximide-chase analysis of BIK turnover in 293T cells; assay type: cell-based; conditions: 10 μg/ml tunicamycin 12 h then 50 μg/ml cycloheximide, FIG. 4b
Experimental: FIG. 4. ER stress stimulates BIK ubiquitination and degradation through ASB11 and p97. (a) Western blot analysis of BIK and ASB11 levels in 293T cells treated with 10 μg/ml tunicamycin or 200 nM of thapsigargin for 16 h. (b) Western blot analysis of BIK levels in 293T cells treated with 10 μg/ml tunicamycin for 12 h and then with 50 μg/ml cycloheximide for indicated time periods. The relative amounts of BIK are indicated on the bottom. (c, e) Analysis of endogenous (c) or exogenous (e) BIK ubiquitination in 293T cells (c) or 293T derivatives as in FIG. 2d (e) transfected with indicated constructs and treated with tunicamycin. (d) Western blot analysis of 293T derivatives as in FIG. 2d treated with 10 μg/ml tunicamycin for 16 h. (f) Western blot analysis of BIK levels in 293T derivatives co-treated with 10 μg/ml tunicamycin and MG132 for 16 h. (g) Western blot analysis of BIK expression in 293T cells co-treated with tunicamycin and 10 μM CB-5083 for 16 h. (h, i) Western blot analysis of BIK expression in 293T cells stably expressing indicated shRNAs and treated with 10 μg/ml tunicamycin for 16 h. The knockdown efficiency of each shRNA is shown on the right. (j) Immunoprecipitation analysis of p97 interaction with ubiquitinated BIK in 293T cells treated with 10 μg/ml tunicamycin for 16 h.

p97 / ubiquitinated BIK = experiment: Immunoprecipitation analysis of p97 interaction with ubiquitinated BIK; assay type: cell-based; conditions: 293T cells, 10 μg/ml tunicamycin, 16 h
Experimental: as §1, §2

[4] = tested on: TNBC cells (Hs578T, MDA-MB157, MDA-MB468); experiment: MTT assay for viability of TNBC cells transfected with BIKDD and treated with IRE1α inhibitor; assay type: cell-based; conditions: 10 or 100 μM STF-083010, 48 h
Experimental: (§4) FIG. 7. […] (a, c) MTT assay for the viability of indicated TNBC cells transfected with […] CMV-BIKDD (a) or VISA-BIKDD (c) and treated with 10 or 100 μM STF-083010 for 48 h. CI values are indicated. (b) Western blot analysis of cleaved PARP in indicated TNBC cells transfected with CMV-BIKDD and treated with 100 μM STF-083010 for 36 h. […] Tumor volume were measured at indicated days and plotted. Data are mean±s.d., *P<0.05; ***P<0.001 by two-way ANOVA with Turkey's post test, n=5. Tumors were surgically removed at day 49 and their sizes are shown on the right. (e) Mice orthotopically implanted with Hs578T cells and treated with VISA-BIKDD lipid nanoparticle together with STF-083010 or DMSO starting at day 28 after tumor cell implantation (see Materials and Methods). Tumor volume were measured at indicated days and plotted. Data are mean±s.d., ***P<0.001 by two-way ANOVA with Turkey's post test, n=5. Tumors were surgically removed at day 66 and their sizes are shown on the right.
MDA-MB157 and MDA-MB 468 cells were seeded at a density of 5×10^3 cells and Hs578T cells were at 2×10^3 cells in 96-well plates. Cells were transfected with BIKDD. In the next day, cells were treated with IRE1α inhibitor or DMSO for 48 h and then with 0.4 mg/ml methylthiazolyldiphenyltetrazolium bromide (MTT) (Sigma) for 2 h. Cells were dissolved in DMSO, followed by absorbance measurement at 590 nm. The combination index (CI) was calculated using the equation: CI=CA/IC50A+CB/IC50B. CA and CB represent the concentrations of the two agents for combined treatment. IC50A and IC50B are the IC50 values for each single treatment, which were determined by treating cells with various dosages of each agent followed by MTT assay. (CI<1) indicates a synergistic effect, (CI>1) corresponds to an antagonistic effect, and (CI=1) represents an additive effect.

cleaved PARP = experiment: Western blot analysis of cleaved PARP in TNBC cells; assay type: cell-based; conditions: TNBC cells transfected with CMV-BIKDD, 100 μM STF-083010, 36 h; FIG. 7b
Experimental: as §4
as §2, with “leupeptin. Western blot was performed with the standard protocol.” for “leupeptin.”

[5] = tested on: Hs578T orthotopic breast tumors; experiment: BIKDD gene therapy model: orthotopic Hs578T tumors, intratumoral VISA-BIKDD plus STF-083010; assay type: in vivo, nude mice
Experimental: (§5) All mice were maintained according to the guidelines of animal ethical regulations, and all animal studies were approved by the Experimental Animal Committee, Academia Sinica. […] Seven days later, DMSO or STF-083010 (40 mg/kg) was intraperitoneally administrated every 3 days. […] Twenty-eight days later, DMSO or STF-083010 (40 mg/kg) was intraperitoneally administrated every 3-4 days. […] For both models, tumors were measured every 3 or 4 days, and their volumes were calculated using the equation: mm^3=[…]×length(mm)×(width(mm))^2.

BIKDD = BIKDD levels in TNBC cell lines treated with IRE1α inhibitor; assay type: cell-based; conditions: TNBC cell lines Hs578T, MDA-MB157 and MDA-MB468
Experimental: as §3

[6] = tested on: Hs578T orthotopic breast tumors; experiment: Orthotopic Hs578T tumor model, cells expressing BIKDD or control vector, treated with STF-083010; assay type: in vivo, nude mice
Experimental: as §5

Question: tunicamycin was tested. Which ASB11 protein expression (ASB11) did it give?
Answer: elevated

Question: What about the “expression of ASB11 mRNA” value (ASB11 mRNA) of the same compound?
Answer: upregulated

Question: What about the “ubiquitination of endogenous BIK” value (BIK [1]) of the same compound?
Answer: increased

Question: What about the BIK protein level (BIK [2]) of the same compound?
Answer: reduced

Question: What about the apoptosis induction (293T cells) of the same compound?
Answer: did not show sign of apoptosis induction

Question: And the “turnover of endogenous BIK” value (BIK [3])?
Answer: increased

Question: What about the “interaction of p97 with ubiquitinated BIK” value (p97 / ubiquitinated BIK) of the same compound?
Answer: increased

Question: For O=S(=O)(N=Cc1c(O)ccc2ccccc12)c1cccs1 [STF-083010, N-[(2-Hydroxy-1-naphthalenyl)methylene]-2-thiophenesulfonamide], which “killing of TNBC cells in combination with BIKDD” value ([4]; CMV-BIKDD transfected Hs578T, MDA-MB157, MDA-MB468, FIG. 7a) is on record?
Answer: synergized

Question: And the “killing effect of co-administration with VISA-BIKDD” value ([4]; VISA-BIKDD transfected TNBC cells, FIG. 7c)?
Answer: synergistic

Question: What about the “level of cleaved PARP, combinatory treatment” value (cleaved PARP) of the same compound?
Answer: increased

Question: What about the “anti-tumor effect of combined administration compared to BIKDD alone” value ([5]; VISA-BIKDD 0.75 mg/kg intratumoral every 7 days plus STF-083010 40 mg/kg i.p. every 3-4 days, FIG. 7e) of the same compound?
Answer: significant enhancement

Question: And the “body weights of mice” value ([5]; VISA-BIKDD gene therapy model)?
Answer: not altered

Question: And the BIKDD levels (BIKDD)?
Answer: elevated

Question: And the “tumor growth, combined treatment with BIKDD” value ([6]; BIKDD-expressing Hs578T cells plus STF-083010 40 mg/kg i.p. every 3 days, FIG. 7d)?
Answer: greatly suppressed

Question: What about the “body weights of mice” value ([6]; BIKDD-expressing cell model) of the same compound?
Answer: not altered

Question: And the “tumor growth, agent alone” value ([6]; BIKDD-expressing cells or STF-083010 40 mg/kg i.p. every 3 days, alone, FIG. 7d)?
Answer: modest reduction
